Assay results as given in US20240269106A1, “SMALL MOLECULE MODULATOR TARGETING A RARE HISTONE MODIFICATION REGULATING ADIPOGENESIS AND PHARMACEUTICAL FORMULATION THEREOF” (COUNCIL OF SCIENTIFIC AND INDUSTRIAL RESEARCH AN INDIAN …, priority 2021, published 2024).

Experiments:
[1] = biological target: T1, full length p300 (Homo sapiens, UniProt Q09472); assay: In vitro p300 acetylation assay (immunoblot); type: biochemical; conditions: for effect on p300 catalysed acetyltransferase activity: FIG. 2i, immunoblot
T1 construct: Purified full length p300 protein was used for in vitro acetylation/butyrylation assay
Method: (§1) Purified full length p300 protein was used for in vitro acetylation/butyrylation assay in presence/absence of different compounds. Acylation reactions were performed in reaction buffer (25 mM Tris-HCl PH 7.5, 100 mM NaCl, 0.1 mM EDTA, 1 mM DTT, 10% Glycerol, 1×PIC) with 100 ng/ml TSA, and 50 μM Butyryl-CoA/Acetyl COA. Xenopus histone H3 (500 ng) was used as the substrate and p300 (10,000 cpm activity) was used as the enzyme. Reactions were incubated in presence or absence of small molecule modulators (including compound of Formula I) for 10 minutes at 30° C., followed by initiation of the acetylation/butyrylation reaction by the addition of acetyl/butyryl CoA. After a further 10 minutes, reactions were stopped by addition of Laemmli buffer and samples were used for immunoblotting.
(§2) Immunoblotting with antibodies against acetylated H3K18, acetylated H3K9 and pan-butyryl lysine was performed to check for the relative inhibition of acetyl transferase and butyryl transferase activities of full length p300 by garcinol, isogarcinol and its different derivatives including compound of Formula I at different concentrations. FIG. 2i depicts the effect of garcinol, isogarcinol and two of its derivatives LTK-13 and LTK-14 on p300 catalysed acetyltransferase activity. […] FIG. 2ii depicts the effect of LTK-14 on acetylation and butyrylation catalysed by p300. Lane 1, enzyme alone; Lane 2-4, enzyme+LTK-14 at concentrations 500 nM, 2 μM and 10 μM, respectively. LTK-14 could inhibit acetylation at 10 μM concentration while butyrylation was inhibited at 2 μM concentration. FIG. 2iii depicts the effect of compound x on acetylation and butyrylation catalysed by p300. Lane 1, enzyme alone; Lane 2, enzyme+DMSO; Lane 3-6, enzyme+compound x at concentrations 10, 15, 20 and 25 μM, respectively.

[2] = biological target: T1, full length p300; assay: In vitro p300 butyrylation assay (immunoblot); type: biochemical; conditions: for effect on p300 catalysed butyrylation: FIG. 2 legend
Method: as §1, §2

[3] = tested at 500 nM, 2 μM and 10 μM

T1 sequence (Q09472 whole entry, species assumed): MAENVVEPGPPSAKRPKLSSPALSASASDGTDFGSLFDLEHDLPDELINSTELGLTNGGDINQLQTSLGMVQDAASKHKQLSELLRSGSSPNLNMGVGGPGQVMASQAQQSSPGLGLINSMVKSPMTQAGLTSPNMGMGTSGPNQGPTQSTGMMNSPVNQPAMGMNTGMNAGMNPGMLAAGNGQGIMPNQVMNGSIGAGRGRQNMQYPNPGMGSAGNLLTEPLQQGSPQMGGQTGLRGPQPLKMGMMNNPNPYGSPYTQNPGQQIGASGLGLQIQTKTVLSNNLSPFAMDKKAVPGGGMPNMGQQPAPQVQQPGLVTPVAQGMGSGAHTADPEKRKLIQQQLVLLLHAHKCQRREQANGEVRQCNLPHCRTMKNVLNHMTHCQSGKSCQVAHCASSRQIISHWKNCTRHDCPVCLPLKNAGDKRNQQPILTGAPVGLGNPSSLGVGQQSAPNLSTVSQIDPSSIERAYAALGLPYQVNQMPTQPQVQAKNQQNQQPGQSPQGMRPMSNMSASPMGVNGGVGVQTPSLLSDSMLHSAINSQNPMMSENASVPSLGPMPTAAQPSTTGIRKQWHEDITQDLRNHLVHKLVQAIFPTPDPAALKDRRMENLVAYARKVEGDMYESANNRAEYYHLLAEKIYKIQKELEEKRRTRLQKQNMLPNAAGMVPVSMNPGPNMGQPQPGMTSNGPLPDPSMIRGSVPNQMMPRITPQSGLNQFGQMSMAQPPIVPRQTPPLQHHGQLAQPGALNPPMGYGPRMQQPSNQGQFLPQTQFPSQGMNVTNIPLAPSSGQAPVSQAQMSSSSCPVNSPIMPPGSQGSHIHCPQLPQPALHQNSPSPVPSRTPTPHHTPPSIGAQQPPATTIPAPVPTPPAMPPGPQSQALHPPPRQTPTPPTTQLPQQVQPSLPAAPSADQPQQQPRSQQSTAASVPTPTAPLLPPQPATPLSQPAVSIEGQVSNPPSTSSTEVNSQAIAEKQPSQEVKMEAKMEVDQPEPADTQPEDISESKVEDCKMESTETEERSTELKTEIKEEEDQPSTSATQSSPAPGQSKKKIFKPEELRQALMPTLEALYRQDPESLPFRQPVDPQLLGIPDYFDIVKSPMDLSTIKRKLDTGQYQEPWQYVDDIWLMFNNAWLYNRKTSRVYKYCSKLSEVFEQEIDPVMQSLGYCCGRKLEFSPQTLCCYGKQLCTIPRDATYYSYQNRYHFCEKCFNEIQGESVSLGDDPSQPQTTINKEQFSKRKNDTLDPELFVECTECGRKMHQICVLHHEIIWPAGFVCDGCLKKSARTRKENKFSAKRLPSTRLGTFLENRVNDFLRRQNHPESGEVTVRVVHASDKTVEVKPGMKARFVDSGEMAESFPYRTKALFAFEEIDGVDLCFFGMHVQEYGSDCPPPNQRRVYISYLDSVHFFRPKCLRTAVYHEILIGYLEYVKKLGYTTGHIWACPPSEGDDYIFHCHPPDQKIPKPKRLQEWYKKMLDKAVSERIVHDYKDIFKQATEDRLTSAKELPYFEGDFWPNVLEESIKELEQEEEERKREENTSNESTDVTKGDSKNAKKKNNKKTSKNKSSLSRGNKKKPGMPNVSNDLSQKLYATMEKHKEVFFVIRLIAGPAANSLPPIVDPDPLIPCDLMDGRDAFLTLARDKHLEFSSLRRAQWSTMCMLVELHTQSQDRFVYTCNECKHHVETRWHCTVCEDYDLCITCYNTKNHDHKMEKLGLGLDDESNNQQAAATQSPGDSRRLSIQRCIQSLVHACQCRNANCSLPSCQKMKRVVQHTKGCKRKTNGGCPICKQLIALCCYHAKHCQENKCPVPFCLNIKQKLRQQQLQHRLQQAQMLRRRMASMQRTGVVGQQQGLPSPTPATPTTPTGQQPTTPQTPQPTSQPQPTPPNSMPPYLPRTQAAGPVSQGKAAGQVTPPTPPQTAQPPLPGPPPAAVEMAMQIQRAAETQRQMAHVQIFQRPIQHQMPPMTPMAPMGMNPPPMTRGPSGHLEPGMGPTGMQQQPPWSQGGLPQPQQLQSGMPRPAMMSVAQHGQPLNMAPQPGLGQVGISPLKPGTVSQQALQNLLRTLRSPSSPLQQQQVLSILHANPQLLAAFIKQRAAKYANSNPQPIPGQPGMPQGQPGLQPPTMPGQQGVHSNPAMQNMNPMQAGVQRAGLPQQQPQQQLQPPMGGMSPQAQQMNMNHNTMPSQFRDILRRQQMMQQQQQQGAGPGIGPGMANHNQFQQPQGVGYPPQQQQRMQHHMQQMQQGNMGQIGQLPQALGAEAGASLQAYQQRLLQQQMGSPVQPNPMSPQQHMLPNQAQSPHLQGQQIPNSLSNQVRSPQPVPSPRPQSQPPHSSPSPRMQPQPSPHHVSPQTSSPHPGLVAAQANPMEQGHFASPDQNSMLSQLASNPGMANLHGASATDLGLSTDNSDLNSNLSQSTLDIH

Row | Structure (SMILES) | effect on p300 catalysed acetyltransferase activity [1] | concentration at which acetylation was inhibited [1, 3] [µM] | effect on p300 catalysed butyrylation [2] | concentration at which butyrylation was inhibited [2, 3] [µM]
1 | COc1ccc(C(=O)C2=C3OC(C)(C)[C@@H](CC=C(C)C)C[C@@]34C[C@@H](CC=C(C)C)C(C)(C)[C@@](CC=C(C)C)(C2=O)C4=O)cc1O [LTK-14] | showed inhibitory effect | 10 | can inhibit | 2
2 | CC(C)=CC[C@H]1C[C@@]23C[C@@H](CC=C(C)C)C(C)(C)[C@@](CC=C(C)C)(C(=O)C(C(=O)c4ccc(O)c(O)c4)=C2OC1(C)C)C3=O [isogarcinol] | showed inhibitory effect |  | can inhibit | 
